| Structure (SMILES) | melting point [°C] |
| --- | --- |
| CCCCc1nn(-c2cc(N)ccc2C(F)(F)F)c(=O)n1Cc1ccc(-c2ccccc2S(=O)(=O)NC(=O)OC(C)(C)C)cc1 | 154 to 156 |
| COc1ccc(CC(N)=O)cc1OC | 142 to 144 |
| CN(C)c1ccc(Br)cn1 | 39 to 41 |
| Cc1cccc(CN(CCC(=O)O)c2nc(NC(=O)Nc3ccccc3O)nc(Nc3ccccc3-c3ccccc3)n2)c1 | 122 to 124 |
| CSc1ccc2[nH]c(=O)n(CCN3CCC(Nc4nc5ccccc5n4Cc4ccc(F)cc4)CC3)c(=O)c2c1 | 238 |
| O=P(O)(O)C(F)(F)c1ccc(CNCc2ccc(C(F)(F)P(=O)(O)O)cc2)cc1 | 106 to 108 |
| O[C@H](COc1cccc2[nH]ccc12)CN1CC=C(c2c[nH]c3cc(Cl)ccc23)CC1 | 200 to 202 |
| O=C1C=CC(O)(c2ccccn2)C=C1 | 116 to 117 |
| COc1cn(C)c(=O)c(N)n1 | 166 to 167 |
| N#Cc1cccc(C(=O)c2ccc(C3CCCCC3)cc2)c1 | 73 to 74 |
| CCOC(=O)C=C(C)C=CC=C(C)C=Cc1c(Cl)cc(OC)c(Cl)c1Cl | 126 to 128 |
| Cc1cc(C)nc(-n2ccnc2SCc2ccccc2NC=O)c1 | 124 to 126 |
| OC(COCC1CNCCO1)c1ccc2ccccc2c1 (stereo not drawn) | 141 to 144 |
| O=C(O)c1ccc2c(c1)Cc1cccnc1O2 | 285 to 286 |
| O=C(O)C1CC(C(=O)O)C(C(=O)O)C1C(=O)O (stereo not drawn) | 186 |
| CCCCC1CCC(c2ccc(C(=O)CC(=O)C(F)(F)F)cc2)CC1 (stereo not drawn) | 65 |
| O=[N+]([O-])c1ccc(F)c(-c2cccc(CO)c2)c1 | 113 to 114 |
| NC(=O)c1cccc(-c2cc(OC(=O)NC3CCCCC3)ccc2O)c1 | 128 to 130 |
| COc1ccc2ccc3c(c2c1)C=C(C(=O)O)CO3 | 226 |
| COc1ccc(S(=O)(=O)Nc2cccnc2Nc2ccc(OC)nc2)cc1 | 159 to 160 |
| CC1=Nc2ccccc2CC(c2cccs2)N1C (stereo not drawn) | 106 to 108 |

| Structure (SMILES) | melting point [°C] |
| --- | --- |
| CCCCc1c2c(nc3c1CCc1cc4nc(C#N)c(N)cc4nc1-3)C(=O)CCC2 | > 300 |
| COc1cc(NC(C)=O)ccc1N1CCN(CCCNc2c(C)c(=O)n(C)c(=O)n2C)CC1 | 178 to 180 |
| O=C(C(Cl)Cl)N1CCCCCC1 | 56 |
| Nc1cc2c(cc1[N+](=O)[O-])[nH]c(=O)c(=O)n2C1CCCCC1 | > 260 |
| CCCN(CCC)Cc1csc(-c2ncn3c2CN(C)C(=O)c2cc(F)ccc2-3)n1 | 134 to 136 |
| COc1cc(OC)c2c(=O)[nH]c(-c3ccc(OCCO)c(-c4ccccc4S(C)(=O)=O)n3)nc2c1 | 92 to 93 |
| COC(=O)Cc1cc2c(s1)NC(=O)C(C)N=C2c1ccccc1Cl (stereo not drawn) | 185 to 190 |
| CCCc1cc2cccc(C(=O)OCOC(=O)C(C)(C)C)c2n1Cc1ccc(-c2ccccc2-c2nnn[nH]2)cc1 | 101 to 103 |
| CN(C)C[C@@H]1C[C@H]1c1c[nH]c2ccc(C#N)cc12 (relative stereo) | 120 to 121 |
| COCCc1nc2c(N)nc3ccccc3c2n1CCCCNC(=O)c1ccc(-n2cccc2)cc1 | 173 to 175 |
| O=C(Cc1cnoc1-c1ccccc1)Nc1nc(-c2ccc(Cl)cc2)cs1 | 210 to 211 |
| COc1c(C)c(OC(=O)c2c(C)c(C)c(OCCCN3C(=O)c4ccccc4S3(O)O)c(C)c2OC)c(C)c(C)c1C(=O)O | 222 to 223 |
| COc1cc(OC)nc(Sc2c([N+](=O)[O-])nc(C)n2C)n1 | 228 to 230 |
| Cc1ccc(-c2cncc(OC3SCC(O)C(O)C3O)c2)cc1C (stereo not drawn) | 184 |
| CC(N)C(=O)Nc1cc(OCC(F)(F)F)ccc1-c1ccccn1 (stereo not drawn) | 85 to 86 |
| O=C1C2CCCC2=Nc2ccc(F)cc2N1Cc1ccccc1 (stereo not drawn) | 158 to 159 |
| COc1cc2cc[nH]c2cc1OCCCCl | 73 to 75 |
| C=C1CCC2C3CCC4CC(O)C(OCC)CC4(C)C3C(=NO)CC12C (stereo not drawn) | 97 to 99 |
| NC(=O)C1CCN(c2ncncc2Br)CC1 | 188 to 190 |
| CCOC(Cc1ccc(OCCN2CCOc3ccccc32)cc1)C(=O)NC (stereo not drawn) | 97 to 99 |
| Cc1cc(OCc2ccccc2F)c2cccc(O)c2n1 | 124 to 125 |

| Structure (SMILES) | melting point [°C] |
| --- | --- |
| CS(=O)(=O)c1c(C(=O)c2cnoc2C2CC2)ccc(F)c1F | 115 to 118 |
| CCOC(=O)CSc1ccc([N+](=O)[O-])cc1C1C(C(=O)OC)=C(C)N(C)C(C)=C1C(=O)OC | 118 |
| CC(C)(C)OC(=O)N[C@@H](Cc1ccccc1)[C@@H](O)[C@@H](NCc1cccc2ccccc12)C(=O)O | 225 to 227 |
| CCCc1nn(C)c(C(N)=O)c1NC(=O)c1ccccc1OCC | 153 to 154 |
| CC(C)CC1(CC(=O)NO)CCN(Cc2ccccc2)C1=O (stereo not drawn) | 119 to 120 |
| Cc1csc2nc(-c3ccc(C(=O)O)cc3)nc(NCc3ccccc3)c12 | 270 |
| COc1ccccc1CC(=O)N1C[C@@H]2C(=O)CCC(c3ccccc3)(c3ccccc3)[C@@H]2C1 (racemic) | 163 |
| O=C(O)Cc1ccc(NCCNC(=O)C2Cc3ccccc3N2S(=O)(=O)c2ccc(-c3cc(C(F)(F)F)ccc3Cl)cc2)cc1 (stereo not drawn) | 110 to 118 |
| N#Cc1nn(-c2c(Cl)cc(C(F)(F)F)cc2Cl)c(N)c1-c1ccoc1 | 180 to 181 |
| CC1(O)CC2(C)C(=O)CCC2C2CCC3=CC(=O)CCC3(C)C21 (stereo not drawn) | 150 to 151 |
| CCOCN1C(C)=C(C(=O)O)C(c2cccc(Cl)c2Cl)C(C(=O)OC)=C1C (single isomer, unassigned; (+)) | 129 to 131 |
| COC(=O)C1=C(C)NC(C)=C(C(=O)NC(C)C)C1c1ccccc1[N+](=O)[O-] (stereo not drawn) | 203 to 206 |
| CCN(CC)CCNc1ccc(CNC)c2sc3ccc(O)cc3c(=O)c12 | 167 to 169 |
| CCOC(=O)Cn1cc(-c2ccc(F)cc2)c(-c2ccc(S(C)(=O)=O)cc2)n1 | 116 to 118 |
| CCOc1ccc2c(c1)C(=O)N(CCCCBr)S2(=O)=O | 105 to 108 |
| CC(C)(C)N[C@@H]1Cc2c(O)cccc2C[C@H]1O (relative stereo) | 123 to 127 |
| CN=C(N)Nc1nc(CSCCNC2=NS(=O)N=C2N)cs1 (stereo not drawn) | 86 to 91 |
| COCCN(CCOC)CC1=Cc2ccsc2S(=O)(=O)N1Cc1ccc(OC)cc1 | 75 to 77 |
| COc1ccc(-c2nc(CCl)co2)s1 | 64 to 65 |

Second part, the molecule after the results:

| melting point [°C] | Structure (SMILES) |
| --- | --- |
| 115 to 117 | CCCc1cc(=O)n(-c2cc(OC(C)C)c(Cl)cc2F)c(=O)n1C |
| 74 to 75 | Nc1ccc(NCCO)c(C(F)(F)F)c1 |
| 172 | CCCCCCCCCCCCCCCCCC(=O)NCNC(=O)CCSc1ccc(O)cc1 |
| 73 | CC(C)c1cc2cc([N+](=O)[O-])ccc2o1 |
| 181 to 182 | NC(=O)c1ncn(Cc2ccccc2)c1NC(=S)NC(=O)c1ccccc1 |
| 131 to 133 | COc1ccc2[nH]c(-c3ccc(OC)c4nc(C(F)(F)F)ccc34)nc2c1 |
| 138 | COc1ccc(C2CCCCC2)cc1-c1csc(NC(=O)N2CCN(C3CCN(S(=O)(=O)C4CC4)CC3)CC2)n1 |
| 51 | C=CCc1c(C)cc(C)cc1O |
| 199 to 202 | Nc1cnc(-c2ccccc2)nc1C(=O)O |
| 161 to 162 | COc1ccc(S(=O)(=O)Nc2cccnc2Nc2cccc(OC)c2)cc1 |
| 100 to 105 | O=C(CCCCCN1CCN(c2cccc(C(F)(F)F)c2)CC1)N1Cc2ccccc2C1 |
| 105 to 108 | Cc1ccc(-c2ccc(NC(=O)OC(C)(C)C)c([N+](=O)[O-])c2)cc1 |
| 103 to 106 | COC(=O)C(=[N+]=[N-])c1ccc(S(C)(=O)=O)c(Cl)c1 |
| 133 to 134 | Cc1cc(CC(C)(C)CO)cc(C)c1O |
| 134 to 136 | O=C(Cn1c2c(c3c4c(ccc31)OCC=C4)CCN(Cc1ccccc1)CC2)Nc1ccccc1 |
| 99 to 100 | CCN(CC)C(C)CN1CCc2c(c(=O)oc3c(OC)c(OC)ccc23)C1 (stereo not drawn) |
| 190 to 191 | CCCCc1nc2ccn(Cc3cccc(C(=N)N)c3)c(=O)c2n1Cc1ccc2ccc(C(=N)N)cc2c1 |
| 171 to 172 | COc1ccc(C(C)(C#N)CNC(=O)C(N)=O)cc1OC1CCCC1 (stereo not drawn) |
| 172 to 174 | O=C(Nc1ccccc1O)c1ccc(O)c(Cl)c1 |

| melting point [°C] | Structure (SMILES) |
| --- | --- |
| 172 to 174 | c1ccc2c(N3CCOCC3)nc(N3CCOCC3)nc2c1 |
| 105 to 107 | CCOc1ccc(C)cc1NC(=O)Nc1ccc(N2CCN(C(=O)OC(C)(C)C)CC2)cc1 |
| 106 to 107 | Nc1ccn(-c2cccc(Cl)c2)n1 |
| 153 to 154 | CC(=O)Oc1cc(C)cc(C(=O)O)c1C |
| 198 to 201 | Cc1nn(-c2cc(OC(C)C(=O)NS(=O)(=O)c3cccc4c3OC(C)(C)C4)c(Cl)cc2F)c(=O)n1C(F)F (stereo not drawn) |
| 130 | Cc1cc(CN2CCC(N(C)S(=O)(=O)c3ccc(Nc4nccc(Nc5ccc(F)c(C)c5)n4)cc3)CC2)[nH]n1 |
| 226 | N#CC1=C(C2=CCNCC2)Nc2n[nH]cc2C1c1cccc(C#N)c1Br (stereo not drawn) |
| 180 to 181 | CCCCc1nc2cccc(CC#N)c2n1Cc1ccc(-c2ccccc2C#N)cc1 |
| 63 to 63.5 | CCOCCOC(=O)C1=C(C)N(COCC)C(C)=C(C(=O)OCCOCC)C1c1cccc([N+](=O)[O-])c1 |
| 259 | CN(C)Cc1ccccc1-c1ccc(N2CCc3c(C(F)(F)F)nn(-c4cccc(C(N)=O)c4)c3C2=O)cc1 |
| 171 to 172 | CCc1nn(CC)c(C(N)=O)c1Cc1ccc2oc(-c3ccccc3C(=O)O)c(Br)c2c1 |
| 132 to 135 | O=CC12CC3CC(CC(C3)C1)C2 |
| 84.5 to 86 | COc1ccc2c(c1)Oc1c(ccc(OC)c1C=O)C2(C)C |
| 216 to 218 | O=C1Nc2cccnc2N(C(=O)CCCl)c2ccccc21 |
| 100 | CCCC(=O)NCC1CCc2c(OC)ccc3cccc1c23 (stereo not drawn) |
| 100 to 101 | FC(F)(F)c1ccc2nnc(-c3cccc(Cl)c3Cl)n2c1 |
| 110 to 114 | CSCc1cc(=O)c2ccc(OCc3ccccc3)c(C)c2o1 |
| 49 to 50 | CCSc1nc2cc(Cl)ccc2s1 |

— a melting point compilation (Tetko et al.; mined from patent text by program, amines drawn as free bases though some values may be those of a salt)
